Test results as given in US20250145633A1, “SUBSTITUTED FURANOPYRIMIDINE COMPOUNDS AS PDE1 INHIBITORS” (Dart NeuroScience, LLC, priority 2017, published 2025).

Biological target: human PDE1B enzyme (Homo sapiens (Human), UniProt Q01064)
Assay: IMAP TR-FRET PDE1B enzymatic assay
Assay type: biochemical
Conditions: negative log of half-maximal molar inhibitory concentration; 200 nM FAM-cAMP; values given as bins
Method: PDE1B inhibition was determined by an IMAP TR-FRET assay. The IMAP TR-FRET PDE assay was optimized for concentration of enzyme, Calmodulin, cAMP or cGMP substrate, DMSO tolerance, and incubation time.
Into each well of a solid white 1536 well plate (Corning) was dispensed 250 pg full-length recombinant NH-terminal GST tagged human PDE1B enzyme (BPS Bioscience Cat #60011, San Diego, CA) in 2.5 μL IMAP BSA reaction buffer (Molecular Devices, Sunnyvale, CA) containing 10 U/ml Calmodulin and 2.5 mM CaCl2) (Sigma Aldrich.) After a brief centrifugation, 30 nL of compound was added by transfer from 1 mM stock in DMSO using a Kalypsys 1536 Pintool. Plates were incubated for 5 minutes at room temperature before dispensing 1.5 μL of 533 nM 5-carboxy fluorescein (FAM)-labeled cAMP (Molecular Devices, Sunnyvale, CA) for a final concentration of 200 nM. After a brief centrifugation, the plates were incubated for 30 minutes at room temperature. The assay was terminated by adding 5 μL IMAP binding reagent/Tb complex (Molecular Devices, Sunnyvale, CA) to each well.
Plates were incubated for 1 hour at room temperature and were read on a Viewlux multimode plate reader (Perkin Elmer). The instrument was set to excite using the DUG11 filter and measure using 490/10 nm and 520/10 nm filters. Ratios of acceptor and donor were then calculated.
For IC50 calculations, the values of % efficacy versus a series of compound concentrations were then plotted using non-linear regression analysis of sigmoidal dose-response curves generated with the equation Y=[B+(T−B)]/[1+10((Log EC50−X)×Hill Slope)], where Y=percent activity, B=minimum percent efficacy, T=maximum percent efficacy, X=logarithm of compound and Hill Slope=slope factor or Hill coefficient. The IC50 value was determined by the concentration causing a half-maximal percent efficacy.

SMILES | PDE1b (pIC50)
Cc1cc(C(F)(F)F)nc(CNC(=O)c2c(C)oc3ncnc(NC4(C)CC4)c23)n1 [Example 649, 6-Methyl-N-{[4-methyl-6-(trifluoromethyl)pyrimidin-2-yl]methyl}-4-[(1-methylcyclopropyl)amino]furo[2,3-d]pyrimidine-5-carboxamide] | >8
Cc1oc2ncnc(NC3(C)CC3)c2c1C(=O)N1CCN(c2ccc(C#N)cc2)CC1 [Example 47, 4-(4-{6-Methyl-4-[(1-methylcyclopropyl)amino]furo[2,3-d]pyrimidine-5-carbonyl}piperazin-1-yl)benzonitrile] | >8
COc1ccc(C(C)NC(=O)c2c(C)oc3ncnc(NC4(C)CC4)c23)cc1 (stereo in doubt) [Example 560, N-[(1R)-1-(4-Methoxyphenyl)ethyl]-6-methyl-4-[(1-methylcyclopropyl)amino]furo[2,3-d]pyrimidine-5-carboxamide] | >8
Cc1ccnc(C2CCN(C(=O)c3c(C)oc4ncnc(NC5(C)CC5)c34)CC2)n1 [Example 390, 6-Methyl-N-(1-methylcyclopropyl)-5-[4-(4-methylpyrimidin-2-yl)piperidine-1-carbonyl]furo[2,3-d]pyrimidin-4-amine] | >8

Same assay, conditions: negative log of half-maximal molar inhibitory concentration; 200 nM FAM-cAMP; values given as bins; read-out: PDE1b (pIC50) (converted)

SMILES | IC50
Cc1oc2ncnc(NC3(C)CC3)c2c1C(=O)NCc1cc(Br)no1 [Example 318, N-[(3-Bromo-1,2-oxazol-5-yl)methyl]-6-methyl-4-[(1-methylcyclopropyl)amino]furo[2,3-d]pyrimidine-5-carboxamide] | 10 to 100 nM
Cc1oc2ncnc(NC3(C)CC3)c2c1C(=O)NCC1CCOCC1 [Example 139, 6-Methyl-4-[(1-methylcyclopropyl)amino]-N-(oxan-4-ylmethyl)furo[2,3-d]pyrimidine-5-carboxamide] | 10 to 100 nM
Cc1oc2ncnc(NC3(C)CC3)c2c1C(=O)Nc1cnn(-c2ccccn2)c1 [Example 419, 6-Methyl-4-[(1-methylcyclopropyl)amino]-N-[1-(pyridin-2-yl)-1H-pyrazol-4-yl]furo[2,3-d]pyrimidine-5-carboxamide] | 10 to 100 nM
Cc1oc2ncnc(NC3(C)CC3)c2c1C(=O)N(C)c1cnn(C)c1 [Example 469, N,6-Dimethyl-N-(1-methyl-1H-pyrazol-4-yl)-4-[(1-methylcyclopropyl)amino]furo[2,3-d]pyrimidine-5-carboxamide] | 100 to 1000 nM
CCOc1ccc(C(C)NC(=O)c2c(C)oc3ncnc(NC4(C)CC4)c23)cc1F (stereo not drawn) [Example 595, N-[1-(4-Ethoxy-3-fluorophenyl)ethyl]-6-methyl-4-[(1-methylcyclopropyl)amino]furo[2,3-d]pyrimidine-5-carboxamide] | 10 to 100 nM
C#CCNC(=O)c1c(C)oc2ncnc(NC3(C)CC3)c12 [Example 210, 6-Methyl-4-[(1-methylcyclopropyl)amino]-N-(prop-2-yn-1-yl)furo[2,3-d]pyrimidine-5-carboxamide] | 10 to 100 nM
Cc1oc2ncnc(NC3(C)CC3)c2c1C(=O)NC(C)(C)CF [Example 374, N-(1-Fluoro-2-methylpropan-2-yl)-6-methyl-4-[(1-methylcyclopropyl)amino]furo[2,3-d]pyrimidine-5-carboxamide] | 10 to 100 nM
Cc1oc2ncnc(NC3(C)CC3)c2c1C(=O)N1CC2CC(C1)c1ccccc12 [Example 403, 5-{10-Azatricyclo[6.3.1.0^2,7]dodeca-2,4,6-triene-10-carbonyl}-6-methyl-N-(1-methylcyclopropyl)furo[2,3-d]pyrimidin-4-amine] | 100 to 1000 nM
Cc1oc2ncnc(NC3(C)CC3)c2c1C(=O)NCc1nnc2ccc(C(F)(F)F)cn12 [Example 463, 6-Methyl-4-[(1-methylcyclopropyl)amino]-N-{[6-(trifluoromethyl)-[1,2,4]triazolo[4,3-a]pyridin-3-yl]methyl}furo[2,3-d]pyrimidine-5-carboxamide] | 10 to 100 nM
Cc1oc2ncnc(NC3(C)CC3)c2c1C(=O)NCCN=S(C)(C)=O [Example 756, N-(2-{[Dimethyl(oxo)-λ^6-sulfanylidene]amino}ethyl)-6-methyl-4-[(1-methylcyclopropyl)amino]furo[2,3-d]pyrimidine-5-carboxamide] | 100 to 1000 nM
Cc1oc2ncnc(NC3(C)CC3)c2c1C(=O)N1CCc2c(ncnc2NC2(C)CC2)C1 [Example 796, 6-Methyl-N-(1-methylcyclopropyl)-5-{4-[(1-methylcyclopropyl)amino]-5H,6H,7H,8H-pyrido[3,4-d]pyrimidine-7-carbonyl}furo[2,3-d]pyrimidin-4-amine] | 10 to 100 nM
Cc1oc2ncnc(NC3(C)CC3)c2c1C(=O)Nc1ccn(-c2ncccc2F)n1 [Example 446, N-[1-(3-Fluoropyridin-2-yl)-1H-pyrazol-3-yl]-6-methyl-4-[(1-methylcyclopropyl)amino]furo[2,3-d]pyrimidine-5-carboxamide] | 10 to 100 nM
Cc1oc2ncnc(NC3(C)CC3)c2c1C(=O)N1CCc2ccc(OCF)cc2C1 [Example 767, 5-[7-(Fluoromethoxy)-1,2,3,4-tetrahydroisoquinoline-2-carbonyl]-6-methyl-N-(1-methylcyclopropyl)furo[2,3-d]pyrimidin-4-amine] | 10 to 100 nM
Cc1cc(CNC(=O)c2c(C)oc3ncnc(NC4(C)CC4)c23)ncn1 [Example 654, 6-Methyl-4-[(1-methylcyclopropyl)amino]-N-[(6-methylpyrimidin-4-yl)methyl]furo[2,3-d]pyrimidine-5-carboxamide] | 10 to 100 nM
Cc1oc2ncnc(NC3(C)CC3)c2c1C(=O)NCCF [Example 125, N-(2-Fluoroethyl)-6-methyl-4-[(1-methylcyclopropyl)amino]furo[2,3-d]pyrimidine-5-carboxamide] | 10 to 100 nM
Cc1cc(C)nc(CNC(=O)c2c(C)oc3ncnc(NC4(C)CC4)c23)n1 [Example 459, N-[(4,6-Dimethylpyrimidin-2-yl)methyl]-6-methyl-4-[(1-methylcyclopropyl)amino]furo[2,3-d]pyrimidine-5-carboxamide] | 10 to 100 nM
Cc1oc2ncnc(NC3(C)CC3)c2c1C(=O)NCc1ccncn1 [Example 652, 6-Methyl-4-[(1-methylcyclopropyl)amino]-N-(pyrimidin-4-ylmethyl)furo[2,3-d]pyrimidine-5-carboxamide] | 10 to 100 nM
Cc1oc2ncnc(NC3(C)CC3)c2c1C(=O)NC12CC(C1)C2 [Example 430, N-{Bicyclo[1.1.1]pentan-1-yl}-6-methyl-4-[(1-methylcyclopropyl)amino]furo[2,3-d]pyrimidine-5-carboxamide] | 10 to 100 nM
Cc1cnc(CN(C)C(=O)c2c(C)oc3ncnc(NC4(C)CC4)c23)s1 [Example 702, N,6-Dimethyl-N-[(5-methyl-1,3-thiazol-2-yl)methyl]-4-[(1-methylcyclopropyl)amino]furo[2,3-d]pyrimidine-5-carboxamide] | 10 to 100 nM
Cc1oc2ncnc(NC3(C)CC3)c2c1C(=O)N1CCN(c2ncc(F)cn2)CC1C (stereo not drawn) [Example 357, 5-[4-(5-Fluoropyrimidin-2-yl)-2-methylpiperazine-1-carbonyl]-6-methyl-N-(1-methylcyclopropyl)furo[2,3-d]pyrimidin-4-amine] | 10 to 100 nM
Cc1oc2ncnc(NC3(C)CC3)c2c1C(=O)NCc1cccnc1F [Example 291, N-[(2-Fluoropyridin-3-yl)methyl]-6-methyl-4-[(1-methylcyclopropyl)amino]furo[2,3-d]pyrimidine-5-carboxamide] | 10 to 100 nM
Cc1oc2ncnc(NC3(C)CC3)c2c1C(=O)N1CCN(c2ccc(F)c(F)c2)C(=O)C1 [Example 64, 1-(3,4-Difluorophenyl)-4-{6-methyl-4-[(1-methylcyclopropyl)amino]furo[2,3-d]pyrimidine-5-carbonyl}piperazin-2-one] | 10 to 100 nM
Cc1oc2ncnc(NC3(C)CC3)c2c1C(=O)NC1CCOC(C)(C)C1 (stereo not drawn) [Example 110, N-(2,2-Dimethyloxan-4-yl)-6-methyl-4-[(1-methylcyclopropyl)amino]furo[2,3-d]pyrimidine-5-carboxamide] | 10 to 100 nM
Cc1oc2ncnc(NC3(C)CC3)c2c1C(=O)N1CCn2c(Br)cnc2C1 [Example 624, 5-{3-Bromo-5H,6H,7H,8H-imidazo[1,2-a]pyrazine-7-carbonyl}-6-methyl-N-(1-methylcyclopropyl)furo[2,3-d]pyrimidin-4-amine] | 10 to 100 nM
Cc1oc2ncnc(NC3(C)CC3)c2c1C(=O)N1CCc2cnc(C3CC3)nc2C1 [Example 299, 5-{2-Cyclopropyl-5H,6H,7H,8H-pyrido[3,4-d]pyrimidine-7-carbonyl}-6-methyl-N-(1-methylcyclopropyl)furo[2,3-d]pyrimidin-4-amine] | 10 to 100 nM
COc1cc(NC(=O)c2c(C)oc3ncnc(NC4(C)CC4)c23)ccc1F [Example 253, N-(4-Fluoro-3-methoxyphenyl)-6-methyl-4-[(1-methylcyclopropyl)amino]furo[2,3-d]pyrimidine-5-carboxamide] | 10 to 100 nM
